Laboratory results published in ChEMBL document CHEMBL5154741, “Antibacterial alkylguanidino ureas: Molecular simplification approach, searching for membrane-based MoA” (Eur J Med Chem, 2022).
Values after ≈ are worked out from the molar mass of the structure shown. Active and inactive are the calls of the source. No cut-off for these calls is given here.

Tests used:
Cell membrane [1] = assay: Disruption of membrane integrity in Bacillus subtilis ATCC 6633 assessed as increase in PI uptake at 16 ug/ml measured after 15 mins by SYTO9/PI staining based fluorometric analysis; details: dose 16.0 µg/ml
Cell membrane [2] = assay: Disruption of membrane integrity in Bacillus subtilis ATCC 6633 assessed as increase in PI positive cells at 16 ug/ml measured after 1 hr by SYTO9/PI staining based confocal laser scanning microscope analysis; format: subcellular; details: dose 16.0 µg/ml
Cell membrane [3] = assay: Disruption of membrane integrity in Enterococcus faecalis ATCC 19433 assessed as increase in PI positive cells at 16 ug/ml measured after 1 hr by SYTO9/PI staining based confocal laser scanning microscope analysis; format: subcellular; details: dose 16.0 µg/ml
[4] = Hemolytic activity against human RBC at 32 ug/ml incubated for 30 mins (reference value: 0%); format: toxicity, cell-based, Erythrocyte; details: human red blood cells (erythrocytes), at 32 µg/mL, read-out: Activity
Cell membrane [5] = assay: Disruption of membrane integrity in Escherichia coli MG1655 assessed as increase in PI uptake at 16 ug/ml measured after 1 hr by SYTO9/PI staining based fluorometric analysis; format: subcellular; details: dose 16.0 µg/ml
Cell membrane [6] = assay: Disruption of membrane integrity in Escherichia coli MG1655 assessed as increase in PI uptake at 16 ug/ml measured every 15 mins for 6 hrs by SYTO9/PI staining based fluorometric analysis; details: dose 16.0 µg/ml
Staphylococcus aureus = assay: Antibacterial activity against Staphylococcus aureus ATCC 25923 assessed as bacterial growth inhibition incubated for 18 hrs by micro-dilution broth method; format: functional
[7] = Apparent permeability of the compound across bacterial inner membrane mimic PC-phospholipids in PBS buffer at pH 7.4 incubated for 5 hrs by PAMPA based UV-Vis spectrophotometric analysis; format: ADME
Cell membrane [8] = assay: Disruption of membrane integrity in Staphylococcus aureus ATCC 25923 assessed as increase in PI uptake at 16 ug/ml measured every 15 mins for 6 hrs by SYTO9/PI staining based fluorometric analysis; format: subcellular; details: dose 16.0 µg/ml
[9] = Hemolytic activity against human RBC at 8 ug/ml incubated for 30 mins (reference value: 0%); format: toxicity, cell-based, Erythrocyte; details: human red blood cells (erythrocytes), at 8 µg/mL, read-out: Activity
[10] = Hemolytic activity against human RBC at 1 ug/ml incubated for 30 mins (reference value: 0%); format: toxicity, cell-based, Erythrocyte; details: human red blood cells (erythrocytes), at 1 µg/mL, read-out: Activity
Cell membrane [11] = assay: Disruption of membrane integrity in Bacillus subtilis ATCC 6633 assessed as increase in PI uptake at 16 ug/ml measured after 1 hr by SYTO9/PI staining based fluorometric analysis; format: subcellular; details: dose 16.0 µg/ml
Enterobacter cloacae = assay: Antibacterial activity against Enterobacter cloacae VA-417/02 assessed as bacterial growth inhibition incubated for 18 hrs by CLSI based micro-dilution broth method; format: functional
[12] = Hemolytic activity against human RBC at 4 ug/ml incubated for 30 mins (reference value: 0%); format: toxicity, cell-based, Erythrocyte; details: human red blood cells (erythrocytes), at 4 µg/mL, read-out: Activity
[13] = Hemolytic activity against human RBC at 64 ug/ml incubated for 30 mins (reference value: 0%); format: toxicity, cell-based, Erythrocyte; details: human red blood cells (erythrocytes), at 64 µg/mL, read-out: Activity
Cell membrane [14] = assay: Disruption of membrane integrity in Enterococcus faecalis ATCC 19433 assessed as increase in PI uptake at 16 ug/ml measured after 1 hr by SYTO9/PI staining based fluorometric analysis; format: subcellular; details: dose 16.0 µg/ml
Klebsiella pneumoniae [15] = assay: Antibacterial activity against pan drug-resistant Klebsiella pneumoniae S1-081Rb assessed as bacterial growth inhibition incubated for 18 hrs by CLSI based micro-dilution broth method; format: functional
Pseudomonas aeruginosa = assay: Antibacterial activity against Pseudomonas aeruginosa ATCC 27853 assessed as bacterial growth inhibition incubated for 18 hrs by micro-dilution broth method; format: functional
Cell membrane [16] = assay: Disruption of membrane integrity in Escherichia coli MG1655 assessed as increase in PI positive cells at 16 ug/ml measured after 1 hr by SYTO9/PI staining based confocal laser scanning microscope analysis; format: subcellular; details: dose 16.0 µg/ml
Klebsiella pneumoniae [17] = assay: Antibacterial activity against Klebsiella pneumoniae ATCC 13833 assessed as bacterial growth inhibition incubated for 18 hrs by micro-dilution broth method; format: functional
Acinetobacter baumannii [18] = assay: Antibacterial activity against Acinetobacter baumannii AC-54/97 assessed as bacterial growth inhibition incubated for 18 hrs by CLSI based micro-dilution broth method; format: functional
Cell membrane [19] = assay: Disruption of membrane integrity in Pseudomonas aeruginosa ATCC 27853 assessed as increase in PI uptake at 16 ug/ml measured after 1 hr by SYTO9/PI staining based fluorometric analysis; format: subcellular; details: dose 16.0 µg/ml
[20] = Apparent permeability of the compound across bacterial inner membrane mimic POPE/POPG (6:4) in PBS buffer at pH 7.4 incubated for 5 hrs by PAMPA based UV-Vis spectrophotometric analysis; format: ADME
Cell membrane [21] = assay: Disruption of membrane integrity in Acinetobacter baumannii ATCC 17978 assessed as increase in PI positive cells at 16 ug/ml measured after 1 hr by SYTO9/PI staining based confocal laser scanning microscope analysis; details: dose 16.0 µg/ml
[22] = Hemolytic activity against human RBC at 16 ug/ml incubated for 30 mins relative to control; format: toxicity, cell-based, Erythrocyte; details: human red blood cells (erythrocytes), at 16 µg/mL, read-out: Activity
Cell membrane [23] = assay: Disruption of membrane integrity in Pseudomonas aeruginosa ATCC 27853 assessed as increase in PI positive cells at 16 ug/ml measured after 1 hr by SYTO9/PI staining based confocal laser scanning microscope analysis; format: subcellular; details: dose 16.0 µg/ml
Cell membrane [24] = assay: Disruption of membrane integrity in Acinetobacter baumannii ATCC 17978 assessed as increase in PI uptake at 16 ug/ml measured after 15 mins by SYTO9/PI staining based fluorometric analysis; details: dose 16.0 µg/ml
Lipid bilayer = assay: Binding affinity to bacterial membrane mimic POPG large unilamellar vesicle assessed as bathochromic shift at 125 uM measured at t = 0 by UV-Vis spectrophotometric analysis
[25] = Apparent permeability of the compound across bacterial inner membrane mimic POPE/POPG (6:4) in PBS buffer assessed as membrane retention at pH 7.4 incubated for 5 hrs by PAMPA based UV-Vis spectrophotometric analysis; format: ADME, cell membranes; details: pH 7.4, 5 h
Escherichia coli = assay: Antibacterial activity against Escherichia coli CCUG assessed as bacterial growth inhibition incubated for 18 hrs by micro-dilution broth method; format: functional
[26] = Apparent permeability of the compound across bacterial inner membrane mimic PC-phospholipids in PBS buffer assessed as membrane retention at pH 7.4 incubated for 5 hrs by PAMPA based UV-Vis spectrophotometric analysis; format: ADME, cell membranes; details: pH 7.4, 5 h
Acinetobacter baumannii [27] = assay: Antibacterial activity against Acinetobacter baumannii ATCC 17978 assessed as bacterial growth inhibition incubated for 18 hrs by micro-dilution broth method; format: functional
[28] = Hemolytic activity against human RBC at 2 ug/ml incubated for 30 mins (reference value: 0%); format: toxicity, cell-based, Erythrocyte; details: human red blood cells (erythrocytes), at 2 µg/mL, read-out: Activity
Cell membrane [29] = assay: Disruption of membrane integrity in Acinetobacter baumannii ATCC 17978 assessed as increase in PI uptake at 16 ug/ml measured after 1 hr by SYTO9/PI staining based fluorometric analysis; format: subcellular; details: dose 16.0 µg/ml

Row | Compound | Activity (Cell membrane [1]) | Activity (Cell membrane [2]) | Activity (Cell membrane [3]) | hemolysis at 0.5 h, 32 ug/ml [4] [%] | Activity (Cell membrane [5]) | Activity (Cell membrane [6]) | MIC (Staphylococcus aureus) [µg/mL] | Papp at 5 h [7] [×10⁻⁶ cm/s] | Activity (Cell membrane [8]) | hemolysis at 0.5 h, 8 ug/ml [9] [%] | hemolysis at 0.5 h, 1 ug/ml [10] [%] | Activity (Cell membrane [11]) | MBC (Enterobacter cloacae) [µg/mL] | MIC (Enterobacter cloacae) [µg/mL] | hemolysis at 0.5 h, 4 ug/ml [12] [%] | hemolysis at 0.5 h, 64 ug/ml [13] [%] | Activity (Cell membrane [14]) | MBC (Klebsiella pneumoniae [15]) [µg/mL] | MIC (Klebsiella pneumoniae [15]) [µg/mL] | MIC (Pseudomonas aeruginosa) [µg/mL] | also measured
1 | N=C(NCCCCCCCCNC(N)=O)NCC1CC1.O=C(O)C(F)(F)F | Active | Active | Active | 0 | Active | Active | 1 | 3.17 | Active | 0 | 0 | Active | 8 | 4 | 0 | 0 | Active | 4 | 4 | 16 | Activity (Cell membrane [16]): Active; MIC (Klebsiella pneumoniae [17]): 1 µg/mL; MBC (Acinetobacter baumannii [18]): 16 µg/mL; MIC (Acinetobacter baumannii [18]): 16 µg/mL; Activity (Cell membrane [19]): Active; Papp at 5 h [20]: 3.48 ×10⁻⁶ cm/s; Activity (Cell membrane [21]): Active; hemolysis at 0.5 h, 16 ug/ml [22]: 0%; Activity (Cell membrane [23]): Active; Activity (Cell membrane [24]): Active; Activity (Lipid bilayer): Active; R% [25]: 3.2%; MIC (Escherichia coli): 2 µg/mL; R% [26]: 7.7%; MIC (Acinetobacter baumannii [27]): 16 µg/mL; hemolysis at 0.5 h, 2 ug/ml [28]: 0%; Activity (Cell membrane [29]): Active
2 | CCCCCCCCN(CCCCCCCCNC(=N)NCC1CC1)C(=O)N(CCCCCCNC(=N)NCC1CC1)CCCCCCNC(=N)NCC1CC1 | Active | Active | Active | 8.4 | Active | Active | 2 (≈ 2.54 µM) | 4.79 | Active | 1.2 | 0 | Active | 8 (≈ 10.2 µM) | 8 (≈ 10.2 µM) | 0.5 | 46.4 | Active | 8 (≈ 10.2 µM) | 8 (≈ 10.2 µM) | 16 (≈ 20.3 µM) | Activity (Cell membrane [16]): Active; MIC (Klebsiella pneumoniae [17]): 4 µg/mL (≈ 5.09 µM); MBC (Acinetobacter baumannii [18]): 8 µg/mL (≈ 10.2 µM); MIC (Acinetobacter baumannii [18]): 8 µg/mL (≈ 10.2 µM); Activity (Cell membrane [19]): Active; Papp at 5 h [20]: 0.13 ×10⁻⁶ cm/s; Activity (Cell membrane [21]): Active; hemolysis at 0.5 h, 16 ug/ml [22]: 2.4%; Activity (Cell membrane [23]): Active; Activity (Cell membrane [24]): Active; Activity (Lipid bilayer): Active; R% [25]: 65.2%; MIC (Escherichia coli): 4 µg/mL (≈ 5.09 µM); R% [26]: 0%; MIC (Acinetobacter baumannii [27]): 16 µg/mL (≈ 20.3 µM); hemolysis at 0.5 h, 2 ug/ml [28]: 0%; Activity (Cell membrane [29]): Active
3 | N=C(N)NCCCCCCCCN(CCCCCCCCNC(=N)NCC1CC1)C(=O)N(CCCCCCCCNC(=N)NCC1CC1)CCCCCCCCNC(=N)NCC1CC1.O=C(O)C(F)(F)F | Active | Active | Active | 3.3 | Active | Active | 0.5 | 1.85 | Active | 0 | 0 | Active | 2 | 2 | 0 | 8.1 | Active | 2 | 2 | 8 | Activity (Cell membrane [16]): Active; MIC (Klebsiella pneumoniae [17]): 1 µg/mL; MBC (Acinetobacter baumannii [18]): 8 µg/mL; MIC (Acinetobacter baumannii [18]): 8 µg/mL; Activity (Cell membrane [19]): Active; Papp at 5 h [20]: 0.3 ×10⁻⁶ cm/s; Activity (Cell membrane [21]): Active; hemolysis at 0.5 h, 16 ug/ml [22]: 1.1%; Activity (Cell membrane [23]): Active; Activity (Cell membrane [24]): Active; Activity (Lipid bilayer): Active; R% [25]: 40.8%; MIC (Escherichia coli): 0.5 µg/mL; R% [26]: 0%; MIC (Acinetobacter baumannii [27]): 4 µg/mL; hemolysis at 0.5 h, 2 ug/ml [28]: 0%; Activity (Cell membrane [29]): Active
